Reference: patent US20220401514A1, “ANTIMICROBIAL, BACTERIOPHAGE-DERIVED POLYPEPTIDES AND THEIR USE AGAINST GRAM-NEGATIVE AND ACID-FAST BACTERIA” (CONTRAFECT CORPORATION, priority 2019, published 2022)
Where two headings read alike, the source gives them in different places.

What was measured:
[1] = test system: P. aeruginosa strain CFS-1292; assay: MIC in presence and absence of NaCl (140 mM); assay type: cell-based, Pseudomonas aeruginosa
Protocol: Certain Chp peptides were evaluated over a range of physiological NaCl levels and pH values, and were further evaluated for activity in the presence of various divalent cations.

M. smegmatis = assay: 45 hr MIC against M. smegmatis (NTM), Mueller Hinton broth; assay type: cell-based, Mycobacterium smegmatis; details: M. smegmatis MC^2 155, Run #1
[2] = test system: P. aeruginosa strain CFS-1292; assay: MIC in presence and absence of Survanta pulmonary surfactant; assay type: cell-based, Pseudomonas aeruginosa
[3] = test system: carbapenem-resistant P. aeruginosa clinical isolate CFS-1292; assay: MIC by modified CLSI broth microdilution against P. aeruginosa CFS-1292 (CAA, CAA + human serum); assay type: cell-based, Pseudomonas aeruginosa; details: 100% CAA; 1st run or single value
Klebsiella pneumoniae [4] = assay type: cell-based
Protocol: (§1) Determination of Minimal Inhibitory Concentrations (MIC).
Additional MIC testing was performed for several peptides against the ESKAPE pathogens Escherichia coli, Enterobacter cloacae, Klebsiella pneumoniae, and Acinetobacter baumannii, in CAA supplemented with human serum (Table D).

Salmonella typhimurium = assay: MIC against Salmonella typhimurium; assay type: cell-based
Pseudomonas aeruginosa = assay: microbe, parasite or virus in culture; assay type: cell-based; details: for MIC: CAA without human serum
[5] = test system: P. aeruginosa strain CFS-1292; assay: MIC in presence of divalent cations (calcium chloride, magnesium sulfate); assay type: cell-based, Pseudomonas aeruginosa
Protocol: Next, Chp peptides were evaluated in the presence of different divalent cations. […]; (2) in the presence of 2 mM calcium chloride alone; (3) in the presence of 1 mM magnesium sulfate alone; and (4) in the presence of both 2 mM calcium chloride and 1 mM magnesium sulfate. […]

Acinetobacter baumannii = assay: microbe, parasite or virus in culture; assay type: cell-based
S. maltophilia = assay: MIC against S. maltophilia isolates; assay type: cell-based, Stenotrophomonas maltophilia; details: S. maltophilia isolates (n per peptide in table)
In short: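 MIC in μg/mL for Chp peptides across several S. maltophilia isolates, n denoting the number of isolates tested.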

Klebsiella pneumoniae [6] = assay: microbe, parasite or virus in culture; assay type: cell-based; details: CAA without human serum
[7] = Stability assessment in 100% CAA; assay type: in vitro ADME; parameters: unit not given beside the values
Protocol: Stability was assessed after incubation in 100% human serum at 37° C. after 10 minutes, 1 hour, and 2 hours.
Stability assessment was further conducted in 100% CAA and rabbit serum using the same methodology discussed above.

[8] = test system: P. aeruginosa strain CFS-1292; assay: MIC at pH 6, pH 7 and pH 8; assay type: cell-based, Pseudomonas aeruginosa
Protocol: The Chp peptides were further evaluated at varying pH levels. The MIC values were determined at pH 6, pH 7, and pH 8 for 18 different Chp peptides against P. aeruginosa strain CFS-1292. […]

[9] = test system: carbapenem-resistant bacterial strains; assay: organism not typed; assay type: cell-based
Text: as §1

Escherichia coli = assay: microbe, parasite or virus in culture; assay type: cell-based
In short: (§2)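 Peptide MICs were determined by growth inhibition in CAA medium supplemented with human serum.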

Enterobacter cloacae = assay: microbe, parasite or virus in culture; assay type: cell-based
In short: as §2

[10] = K. pneumoniae isolates (n per peptide in table)
[11] = P. aeruginosa isolates (n per peptide in table)
[12] = A. baumannii isolates (n per peptide in table)
[13] = E. coli isolates (n per peptide in table)
[14] = E. cloacae isolates (n per peptide in table)

For “MARSRRRMSKRSSRRSFRKYAKTHKRNFKARSMRGGIRL [Ecp1]”, the “Fold change in MIC” value ([1]; CAA + 140 mM NaCl versus CAA without added NaCl) was 4, the MIC, CAA + 140 mM NaCl ([1]; CAA + 140 mM NaCl, P. aeruginosa CFS-1292) was 2 µg/mL and the MIC, CAA (no added NaCl) ([1]; CAA, no added NaCl, P. aeruginosa CFS-1292) was 0.5 µg/mL. The “45 hr MIC” value (M. smegmatis) was 4 µg/mL, the MIC ([2]; CAA media + 0.19 mg/mL Survanta) was 0.5 µg/mL and the MIC ([2]; CAA media + […] Survanta) was 0.5 µg/mL. For the same sequence, the MIC ([2]; CAA media alone) was 0.5 µg/mL, the “MIC (μg/mL) against CFS-1292 in 100% CAA (1st run/2nd run)” value [3] was 0.5 µg/mL and the MIC50 (Klebsiella pneumoniae [4]; [10]) was 1 µg/mL. The MIC100 (Klebsiella pneumoniae [4]; [10]) was 2 µg/mL, the “MIC Range” value (Klebsiella pneumoniae [4]; [10]) was 1 to 2 µg/mL and the MIC (Klebsiella pneumoniae [4]; Klebsiella pneumoniae HM-44, CAA supplemented with human serum) was 0.5 µg/mL. It also gave an MIC (Salmonella typhimurium; Salmonella typhimurium) of 2 µg/mL, an MIC (Salmonella typhimurium; Salmonella typhimurium LT2 (lab isolate), RSC 27, CAA without human serum) of 2 µg/mL and an MIC (Pseudomonas aeruginosa; P. aeruginosa 453 (Human clinical isolate, HSS), RSC 1292) of 2 µg/mL. For the same sequence, the MIC (Pseudomonas aeruginosa; P. aeruginosa (ATCC 14213, human hip wound), RSC 1111) was 2 µg/mL, the MIC (Pseudomonas aeruginosa; P. aeruginosa (ATCC 15152, abscess in middle ear), RSC 1110) was 1 µg/mL and the MIC (Pseudomonas aeruginosa; P. aeruginosa (ATCC 15692, infected wound), RSC 489) was 2 µg/mL. For the same sequence, the MIC (Pseudomonas aeruginosa; P. aeruginosa (ATCC 15692, infected wound), RSC 1115) was 2 µg/mL, the MIC (Pseudomonas aeruginosa; P. aeruginosa (ATCC 17646, human liver abscess), RSC 1109) was 2 µg/mL and the MIC (Pseudomonas aeruginosa; P. aeruginosa (ATCC 19142, tracheobronchial secretion), RSC 1108) was 1 µg/mL. For the same sequence, the MIC (Pseudomonas aeruginosa; P. aeruginosa (ATCC 25102, bacteriophage host), RSC 1114) was 2 µg/mL, the MIC (Pseudomonas aeruginosa; P. aeruginosa (ATCC 27853, MIC control strain), RSC 815) was 2 µg/mL and the MIC (Pseudomonas aeruginosa; P. aeruginosa (ATCC BAA-27, lab strain), RSC 1113) was 4 µg/mL. For the same sequence, the MIC (Pseudomonas aeruginosa; P. aeruginosa (PAO1, alternate source, HER1018), RSC 490) was 2 µg/mL, the MIC50 (Pseudomonas aeruginosa; [11]) was 4 µg/mL and the MIC100 (Pseudomonas aeruginosa; [11]) was over 8 µg/mL. The MIC ([5]; CAA media + 1 mM MgSO4) was 0.5 µg/mL, the MIC ([5]; CAA media + 2 mM CaCl2) was 1 µg/mL and the MIC ([5]; CAA media + + 1 mM MgSO4) was 1 µg/mL. It also gave an MIC ([5]; CAA media alone) of 0.5 µg/mL, an MIC50 (Acinetobacter baumannii; [12]) of 0.5 µg/mL and an MIC100 (Acinetobacter baumannii; [12]) of 1 µg/mL. The “MIC Range” value (Acinetobacter baumannii; [12]) was 0.125 to 2 µg/mL, the MIC (Acinetobacter baumannii; Acinetobacter baumannii (clinical isolate HSS), RSC 30, CAA without human serum) was 2 µg/mL and the MIC (Acinetobacter baumannii; Acinetobacter baumannii (clinical isolate HSS), RSC 32, CAA without human serum) was 2 µg/mL. It also gave an MIC (Acinetobacter baumannii; Acinetobacter baumannii ATCC BAA 747, CAA supplemented with human serum) of 1 µg/mL, an MIC50 (S. maltophilia) of 8 µg/mL and an MIC100 (S. maltophilia) of over 8 µg/mL. For the same sequence, the MIC (Klebsiella pneumoniae [6]; Klebsiella pneumoniae (ATCC 10031, MIC control strain), RSC 814) was 2 µg/mL, the MIC (Klebsiella pneumoniae [6]; Klebsiella pneumoniae (g2-3 HM35K), RSC 1138) was 2 µg/mL and the MIC (Klebsiella pneumoniae [6]; Klebsiella sp. (HM-44; colon, Crohn's disease), RSC 1139) was 2 µg/mL. The MIC (Klebsiella pneumoniae [6]; Klebsiella spp. (HM-223; gut of Crohn's disease patient), RSC 1131) was 2 µg/mL, the “MIC (100% CAA)” value [7] was 0.25 and the MIC ([8]; CAA media (pH 7)) was 0.5 µg/mL. For the same sequence, the MIC ([8]; pH 6) was 1 µg/mL, the MIC ([8]; pH 7) was 1 µg/mL and the MIC ([8]; pH 8) was 1 µg/mL. The MIC ([9]; carbapenem-resistant isolate PA19) was 1 µg/mL, the MIC ([9]; carbapenem-resistant isolate PA20) was over 8 µg/mL and the MIC ([9]; carbapenem-resistant isolate PA21) was over 8 µg/mL. It also gave an MIC ([9]; carbapenem-resistant isolate PA22) of 8 µg/mL, an MIC ([9]; carbapenem-resistant isolate PA23) of 4 µg/mL and an MIC ([9]; carbapenem-resistant isolate PA24) of 4 µg/mL. The MIC ([9]; carbapenem-resistant isolate WLC-452) was 2 µg/mL, the MIC (Escherichia coli; E. coli (ATCC 25922, MIC control strain), RSC 813, CAA without human serum) was 2 µg/mL and the MIC (Escherichia coli; E. coli (HM346, colon, Crohn's disease), RSC 1212, CAA without human serum) was 2 µg/mL. For the same sequence, the MIC50 (Escherichia coli; [13]) was 0.5 µg/mL, the MIC100 (Escherichia coli; [13]) was 2 µg/mL and the “MIC Range” value (Escherichia coli; [13]) was 0.25 to 4 µg/mL. The MIC (Escherichia coli; Escherichia coli ATCC 25922, CAA supplemented with human serum) was 0.25 µg/mL, the MIC50 (Enterobacter cloacae; [14]) was 0.5 µg/mL and the MIC100 (Enterobacter cloacae; [14]) was 2 µg/mL. The “MIC Range” value (Enterobacter cloacae; [14]) was 0.25 to 4 µg/mL, the MIC (Enterobacter cloacae; Enterobacter cloacae (ATCC 13047, MIC control strain), RSC 1240, CAA without human serum) was 2 µg/mL and the MIC (Enterobacter cloacae; Enterobacter cloacae ATCC 13047, CAA supplemented with human serum) was 16 µg/mL.
